In brackets after ≈: the same amount, converted by molar mass. Activity calls are given as the source filed them. The calls are words filed in the database; no cut-off is given here.
Key:
DNA [1] = assay: Binding affinity to sensitive Pseudomonas aeruginosa DNA assessed as hypochromic effect by neutral red dye based UV-vis spectroscopic method; format: nucleic-acid assay
Candida albicans [2] = assay: Antifungal activity against Candida albicans ATCC 90023 after 24 hrs by micro broth dilution method; format: functional; details: ATCC 90023, 24 h
Albumin [3] = target: T1, Albumin (Homo sapiens, UniProt P02768); assay: Binding affinity to HSA assessed as modified Stern-Volmer quenching constant at pH 7.4 at 313 K by fluorescence assay; format: ADME; details: isolated protein
Pseudomonas aeruginosa [4] = assay: Potency index, ratio of norfloxacin MIC to compound MIC for Pseudomonas aeruginosa ATCC 27853; format: functional
Candida albicans [5] = assay: Antifungal activity against drug-resistant Candida albicans after 24 hrs by micro broth dilution method; format: functional
Pseudomonas aeruginosa [6] = assay: Bactericidal activity against drug sensitive Pseudomonas aeruginosa assessed as bacterial load at 4 times MIC after 150 mins by time-kill assay (reference value: 4.3 10^6 CFU/ml); format: functional
DNA [7] = assay: Binding affinity to sensitive Pseudomonas aeruginosa DNA assessed as hypochromic effect at 3.81 x 10^-6mol/L by neutral red dye based UV-vis spectroscopic method; format: nucleic-acid assay
Pseudomonas aeruginosa [8] = assay: Bactericidal activity against drug sensitive Pseudomonas aeruginosa assessed as bacterial load at 4 times MIC after 180 mins by time-kill assay (reference value: 3.5 10^7 CFU/ml); format: functional
Pseudomonas aeruginosa [9] = assay: Bactericidal activity against drug sensitive Pseudomonas aeruginosa assessed as bacterial load at 4 times MIC after 210 mins by time-kill assay (reference value: 3.2 10^9 CFU/ml); format: functional
Albumin [10] = target: T1, Albumin; assay: Binding affinity to HSA assessed as biomolecular quenching rate constant at pH 7.4 at 300 K by fluorescence assay; format: ADME; details: isolated protein
Staphylococcus aureus [11] = assay: Antibacterial activity against Staphylococcus aureus ATCC 29213 after 24 hrs by micro broth dilution method; format: functional; details: ATCC 29213, 24 h
Albumin [12] = target: T1, Albumin; assay: Binding affinity to HSA assessed as modified Stern-Volmer quenching constant at pH 7.4 at 290 K by fluorescence assay; format: ADME; details: isolated protein
Albumin [13] = target: T1, Albumin; assay: Binding affinity to HSA assessed as equilibrium binding constant at pH 7.4 at 300 K by scatchard assay; format: ADME; details: isolated protein
Albumin [14] = target: T1, Albumin; assay: Binding affinity to HSA assessed as biomolecular quenching rate constant at pH 7.4 at 290 K by fluorescence assay; format: ADME; details: isolated protein
Pseudomonas aeruginosa [15] = assay: Bactericidal activity against drug sensitive Pseudomonas aeruginosa assessed as bacterial load at 4 times MIC after 240 mins by time-kill assay (reference value: 1.1 10^10 CFU/ml); format: functional
Pseudomonas aeruginosa [16] = assay: Antibacterial activity against Pseudomonas aeruginosa ATCC 27853 after 24 hrs by micro broth dilution method; format: functional; details: ATCC 27853, 24 h
Albumin [17] = target: T1, Albumin; assay: Binding affinity to HSA assessed as biomolecular quenching rate constant at pH 7.4 at 313 K by fluorescence assay; format: ADME; details: isolated protein
Pseudomonas aeruginosa [18] = assay: Bactericidal activity against drug sensitive Pseudomonas aeruginosa assessed as bacterial load at 4 times MIC after 120 mins by time-kill assay (reference value: 9.3 10^5 CFU/ml); format: functional
Staphylococcus aureus [19] = assay: Antibacterial activity against drug-resistant Staphylococcus aureus after 24 hrs by micro broth dilution method; format: functional
Candida tropicalis [20] = assay: Potency index, ratio of fluconazole MIC to compound MIC for Candida tropicalis; format: functional
Albumin [21] = target: T1, Albumin; assay: Binding affinity to HSA assessed as Stern-Volmer quenching constant at pH 7.4 at 290 K by fluorescence assay; format: ADME; details: isolated protein
Staphylococcus aureus [22] = assay: Antibacterial activity against methicillin-resistant Staphylococcus aureus N315 after 24 hrs by micro broth dilution method; format: functional; details: N315, 24 h
Pseudomonas aeruginosa [23] = assay: Bactericidal activity against drug sensitive Pseudomonas aeruginosa assessed as log reduction in bacterial load at 4 times MIC after 120 mins by time-kill assay; format: functional
DNA [24] = assay: Induction of sensitive Pseudomonas aeruginosa DNA cleavage at 75 uM by ethidium bromide staining-based agarose gel electrophoresis; format: nucleic-acid assay
Albumin [25] = target: T1, Albumin; assay: Binding affinity to HSA assessed as modified Stern-Volmer quenching constant at pH 7.4 at 300 K by fluorescence assay; format: ADME; details: isolated protein
Albumin [26] = target: T1, Albumin; assay: Binding affinity to HSA assessed as equilibrium binding constant at pH 7.4 at 290 K by scatchard assay; format: ADME; details: isolated protein
Albumin [27] = target: T1, Albumin; assay: Binding affinity to HSA assessed as Stern-Volmer quenching constant at pH 7.4 at 313 K by fluorescence assay; format: ADME; details: isolated protein
Candida tropicalis [28] = assay: Antifungal activity against Candida tropicalis after 24 hrs by micro broth dilution method; format: functional
Albumin [29] = target: T1, Albumin; assay: Binding affinity to HSA assessed as Stern-Volmer quenching constant at pH 7.4 at 300 K by fluorescence assay; format: ADME; details: isolated protein
Pseudomonas aeruginosa [30] = assay: Bactericidal activity against drug sensitive Pseudomonas aeruginosa assessed as bacterial load at 4 times MIC after 270 mins by time-kill assay (reference value: 1.8 10^10 CFU/ml); format: functional
Pseudomonas aeruginosa [31] = assay: Antibacterial activity against drug-resistant Pseudomonas aeruginosa after 24 hrs by micro broth dilution method; format: functional
Staphylococcus aureus [32] = assay: Antibacterial activity against Staphylococcus aureus ATCC 25923 after 24 hrs by micro broth dilution method; format: functional; details: ATCC 25923, 24 h
Escherichia coli [33] = assay: Antibacterial activity against Escherichia coli ATCC 25922 after 24 hrs by micro broth dilution method; format: functional; details: ATCC 25922, 24 h
Escherichia coli [34] = assay: Antibacterial activity against drug-resistant Escherichia coli after 24 hrs by micro broth dilution method; format: functional
Albumin [35] = target: T1, Albumin; assay: Binding affinity to HSA assessed as equilibrium binding constant at pH 7.4 at 313 K by scatchard assay; format: ADME; details: isolated protein

T1 sequence (P02768 whole entry): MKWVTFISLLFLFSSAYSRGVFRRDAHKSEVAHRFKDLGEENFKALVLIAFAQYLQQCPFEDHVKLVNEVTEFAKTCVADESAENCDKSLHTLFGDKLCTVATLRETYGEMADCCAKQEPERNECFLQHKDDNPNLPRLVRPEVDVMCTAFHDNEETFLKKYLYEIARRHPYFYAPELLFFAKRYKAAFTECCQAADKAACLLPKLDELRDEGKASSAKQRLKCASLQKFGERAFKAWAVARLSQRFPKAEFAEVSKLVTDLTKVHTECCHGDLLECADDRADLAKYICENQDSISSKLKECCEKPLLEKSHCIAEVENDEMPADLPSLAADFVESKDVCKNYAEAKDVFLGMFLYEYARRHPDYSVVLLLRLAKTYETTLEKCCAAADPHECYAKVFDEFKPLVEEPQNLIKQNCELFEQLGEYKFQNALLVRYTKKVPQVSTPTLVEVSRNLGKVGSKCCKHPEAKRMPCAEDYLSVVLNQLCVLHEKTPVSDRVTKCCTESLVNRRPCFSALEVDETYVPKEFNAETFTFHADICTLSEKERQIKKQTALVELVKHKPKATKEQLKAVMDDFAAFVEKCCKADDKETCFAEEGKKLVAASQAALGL

COc1cc(/C=C(\C(C)O)n2c([N+](=O)[O-])cnc2C)ccc1O (stereo not given)
K (DNA [1]): 1.83 ×10⁴ L/mol | MIC (Candida albicans [2]): 32 mg/L (≈ 100 µM) | KSV (Albumin [3]): 47400 M⁻¹ | Ratio (Pseudomonas aeruginosa [4]): 4 - 16 | MIC (Candida albicans [5]): 256 mg/L (≈ 802 µM) | Activity (Pseudomonas aeruginosa [6]): 3 ×10³ CFU/ml | Activity (DNA [7]): Active | Activity (Pseudomonas aeruginosa [8]): 1.5 ×10² CFU/ml | Activity (Pseudomonas aeruginosa [9]): 87 CFU/ml | Kq (Albumin [10]): 9.56 ×10¹³ L/mol/s | MIC (Staphylococcus aureus [11]): 800 µM (≈ 255 µg/mL) | KSV (Albumin [12]): 82200 M⁻¹ | Kb (Albumin [13]): 4.77 ×10⁴ L/mol | Kq (Albumin [14]): 1.18 ×10¹³ L/mol/s | Activity (Pseudomonas aeruginosa [15]): 72 CFU/ml | MIC (Pseudomonas aeruginosa [16]): 100 µM (≈ 31.9 µg/mL) | Kq (Albumin [17]): 7.79 ×10¹³ L/mol/s | Activity (Pseudomonas aeruginosa [18]): 9.3 ×10⁶ CFU/ml | MIC (Staphylococcus aureus [19]): 1600 µM (≈ 511 µg/mL) | Ratio (Candida tropicalis [20]): 4 | KSV (Albumin [21]): 7.54 ×10⁴ L/mol | MIC (Staphylococcus aureus [22]): 1600 µM (≈ 511 µg/mL) | Activity (Pseudomonas aeruginosa [23]): >3.5 log10CFU/ml | Activity (DNA [24]): Active | KSV (Albumin [25]): 61800 M⁻¹ | Kb (Albumin [26]): 4.77 ×10⁴ L/mol | KSV (Albumin [27]): 4.99 ×10⁴ L/mol | MIC (Candida tropicalis [28]): 128 mg/L (≈ 401 µM) | KSV (Albumin [29]): 6.12 ×10⁴ L/mol | Activity (Pseudomonas aeruginosa [30]): 65 CFU/ml | MIC (Pseudomonas aeruginosa [31]): 400 µM (≈ 128 µg/mL) | MIC (Staphylococcus aureus [32]): 800 µM (≈ 255 µg/mL) | MIC (Escherichia coli [33]): 400 µM (≈ 128 µg/mL) | MIC (Escherichia coli [34]): 1600 µM (≈ 511 µg/mL) | Kb (Albumin [35]): 4.83 ×10⁴ L/mol
